Source: ChEMBL document CHEMBL3232984, “Synthesis and tripanocidal activity of ferrocenyl and benzyl diamines against Trypanosoma brucei and Trypanosoma cruzi” (Bioorg Med Chem Lett, 2014)

Assays:
HepG2 = assay: Cytotoxicity against human HepG2 cells by MTT assay; type: cell-based
Trypanosoma brucei [1] = assay: Antimicrobial activity against procyclic stage of Trypanosoma brucei 427 after 24 hrs by MTT assay; type: functional, organism-based; settings: Trypanosoma brucei, 427, 24 h
[2] = Safety index, ratio of IC50 for human HepG2 cells to IC50 for procyclic stage of Trypanosoma brucei 427; type: toxicity, cell-based; settings: HepG2 cells versus procyclic stage of Trypanosoma brucei 427, read-out: Ratio IC50
Trypanosoma brucei [3] = assay: Antimicrobial activity against […] 29-13 after 24 hrs by MTT assay; type: functional, organism-based; settings: 29-13, 24 h
[4] = Safety index, ratio of IC50 for human HepG2 cells to IC50 for […] 29-13; type: toxicity, cell-based; settings: read-out: Ratio IC50
Trypanosoma cruzi = assay: Antimicrobial activity against epimastigote stage of Trypanosoma cruzi Y after 72 hrs by MTT assay; type: functional, organism-based
[5] = Safety index, ratio of IC50 for human HepG2 cells to IC50 for epimastigote stage of Trypanosoma cruzi Y; type: toxicity, cell-based; settings: HepG2 cells versus epimastigote stage of Trypanosoma cruzi Y, read-out: Ratio IC50

Structure (SMILES)	IC50 (Trypanosoma brucei [1])	IC50 (Trypanosoma brucei [3])	IC50 (Trypanosoma cruzi)	IC50 (HepG2)	selectivity ratio [2]	selectivity ratio [4]	selectivity ratio [5]
Clc1ccc(CNCCNCc2ccc(Cl)cc2Cl)c(Cl)c1	12.3 µM	16.8 µM	51.4 µM	281 µM	22.7	16.7	5.45
O=C(Cn1ccnc1[N+](=O)[O-])NCc1ccccc1 [BENZNIDAZOLE]	208 µM	150 µM	34 µM	2130 µM	10.2	14.2	62.5
N=C(N)c1ccc(OCCCCCOc2ccc(C(=N)N)cc2)cc1 [PENTAMIDINE]	6.43 µM	6.43 µM	4.58 µM	160 µM	24.8	24.8	34.9

More lines, main results first:

IC50 (Trypanosoma brucei [1])	IC50 (Trypanosoma brucei [3])	IC50 (Trypanosoma cruzi)	Structure (SMILES)	IC50 (HepG2)	selectivity ratio [2]	selectivity ratio [4]	selectivity ratio [5]
11.1 µM	9.99 µM	160 µM	Cl.Cl.c1ccc(CNCCNCc2ccccc2)cc1	224 µM	20.2	22.4	1.4
8.25 µM	8.63 µM	10.9 µM	COc1ccc(CNCCNCc2ccc(OC)cc2)cc1	991 µM	120	115	90.9
4.61 µM	5.16 µM	109 µM	Oc1ccccc1CNCCNCc1ccccc1O	148 µM	32.1	28.7	1.36
36.6 µM	19.2 µM	122 µM	O=[N+]([O-])c1ccc(CNCCNCc2ccc([N+](=O)[O-])cc2)cc1	590 µM	16.1	30.7	4.84
